Structures can show the parent of a compound that is named as a salt.
How the values were obtained:
in vivo = conditions: male, beagle, dog, plasma, intravenous, 0.143 mg/kg
Experimental: The three beagle dogs used in the experiment were male, non-naïve beagle dogs, weighing 12.7-13.9 kg, 37-39.5 months old, from CEDS (France) at the first session.
At each test session, serial blood samples were collected in all dogs at 12 time points: pre-dose, and then 0.083 (5 min), 0.167 (10 min), 0.33 (20 min), 0.5 (30 min), 1, 2, 3, 4, 5, 6 and 8 hours after the initial application, giving therefore a total of 180 blood samples. At each time-point, a blood sample of 2 mL was collected by puncture in a jugual vein in conscious animals using an identified vacuum tube containing K2-EDTA (Greiner Bio-One ref #454047) for plasma preparation. Immediately after collection, the blood sample was gently agitated and stored on ice until centrifugation (within 30 minutes of sampling). The blood samples were centrifuged at 4° C., at 1500 g, for 10 minutes. The entire resultant plasma was immediately transferred into an identified 1 mL polypropylene screw capped cryotube (1 aliquot of at least 800 μL of plasma) maintained on ice. The tubes were stored upright at approximately −20° C. until shipment to the test site, ABS Laboratories (BioPark, Broadwater Road, Welwyn Garden City, Herts AL7 3AX), for analysis by HPLC-MS (high performance liquid chromatography-mass spectrometry) using a standard separation protocol.
Individual concentration (C) versus time (T) curves were analysed for standard pharmacokinetic (PK) parameters using non-compartmental analysis using the SimBiology package of MatLab, Version 2015b.

[1] = cited from earlier work

## C=CCN1CC[C@]23c4c5ccc(O)c4O[C@H]2C(=O)CC[C@@]3(O)[C@H]1C5 [Intravenous, Naloxone HCl]
In vivo
  AUC(0-t): 20.8 ng·h/mL
  Cmax: 29.4 ng/mL
  Tmax: 6.7 min
  concentration at 5 min: 28.2 ng/mL

## C=CCN1CC[C@]23c4c5ccc(O)c4O[C@H]2C(=O)CC[C@@]3(O)[C@H]1C5 [naloxone]
[1]
  strongest basic pKa: 10.07
[1]; naloxone as a base
  pKa: 7.84

— patent US11904049B2, “Pharmaceutical formulation” (priority 2017, dated 2024)
